Patent US11014941B2, “Pyrrolopyrimidine derivatives useful as inhibitors of influenza virus replication” (priority 2017, dated 2021)

Biological target: Influenza PB2 (Influenza A virus, UniProt P03428)
Test: biochemical
Assay type: binding
Conditions: read-out: Influenza PB2 affinity, IC50

Chain of Influenza PB2 (P03428 whole entry, looked up): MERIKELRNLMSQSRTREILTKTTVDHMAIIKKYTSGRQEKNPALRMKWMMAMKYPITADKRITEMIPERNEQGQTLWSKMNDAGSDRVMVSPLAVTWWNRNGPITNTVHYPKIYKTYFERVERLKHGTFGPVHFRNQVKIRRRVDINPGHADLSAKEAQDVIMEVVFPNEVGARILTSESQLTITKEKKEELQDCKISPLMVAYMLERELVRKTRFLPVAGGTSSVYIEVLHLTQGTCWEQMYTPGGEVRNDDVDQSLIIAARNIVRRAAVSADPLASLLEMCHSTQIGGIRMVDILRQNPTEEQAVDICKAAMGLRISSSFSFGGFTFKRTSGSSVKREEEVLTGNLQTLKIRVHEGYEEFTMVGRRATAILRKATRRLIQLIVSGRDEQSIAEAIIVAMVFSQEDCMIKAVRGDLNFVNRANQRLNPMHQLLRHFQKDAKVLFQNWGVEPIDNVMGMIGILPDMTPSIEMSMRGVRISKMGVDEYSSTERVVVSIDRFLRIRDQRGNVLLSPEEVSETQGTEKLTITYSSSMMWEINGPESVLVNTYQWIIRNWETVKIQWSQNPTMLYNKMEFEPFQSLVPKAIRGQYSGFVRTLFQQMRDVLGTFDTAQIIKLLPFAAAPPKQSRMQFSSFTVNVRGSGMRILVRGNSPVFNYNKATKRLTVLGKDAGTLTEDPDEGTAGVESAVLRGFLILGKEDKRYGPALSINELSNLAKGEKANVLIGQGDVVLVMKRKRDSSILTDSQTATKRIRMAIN

Row | Compound | IC50 [µM]
1 | Cc1cn([C@@H]2C3CCC(CC3)[C@H]2C(=O)O)c2nc(-c3c[nH]c4ncc(F)cc34)ncc12 [Compound B163] | < 1
2 | O=C(O)C[C@H](NC(=O)Cn1ccc2c(-c3c[nH]c4ncc(F)cc34)ncnc21)C(=O)O [Compound A14] | 1 to 10
3 | CNC(=O)c1cn([C@H]2C3CCC(CC3)[C@@H]2C(=O)O)c2nc(-c3c[nH]c4ncc(Cl)cc34)ncc12 [Compound B197] | < 1
4 | O=C(O)[C@H]1C2CCC(CC2)[C@@H]1n1ccc2cnc(-c3c[nH]c4ncc(Cl)cc34)nc21 [Compound B124] | 1 to 10
5 | CCOC(=O)[C@@H]1C2CCC(CC2)[C@H]1n1cc(C#CC2CC2)c2cnc(-c3c[nH]c4ncc(F)cc34)nc21 [Compound B154] | 10 to 100
6 | CCOCCOCCOCCN(C)C(=O)N[C@H]1CCC[C@@H](n2ccc3cnc(-c4c[nH]c5ncc(F)cc45)nc32)C1 [Compound B29] | 10 to 100
7 | CCOC(=O)[C@@H]1C2CCC(CC2)[C@H]1n1cc(-c2cccc(O)c2)c2cnc(-c3c[nH]c4ncc(F)cc34)nc21 [Compound B182] | 1 to 10
8 | CN(C)C(=O)N[C@H]1CCC[C@H](n2ccc3cnc(-c4c[nH]c5ncc(F)cc45)nc32)C1 [Compound B59] | 10 to 100
9 | CCOC(=O)[C@@H]1C2CCC(CC2)[C@H]1n1cc(C#CCCC#N)c2cnc(-c3c[nH]c4ncc(F)cc34)nc21 [Compound B203] | 10 to 100
10 | CCOC(=O)[C@H]1C2CCC(CC2)[C@@H]1n1cc(F)c2cnc(-c3c[nH]c4ncc(Cl)cc34)nc21 [Compound B134] | > 100
11 | COC(=O)[C@H](CO)NC(=O)CCn1ccc2c(-c3c[nH]c4ncc(F)cc34)ncnc21 [Compound A19] | 10 to 100
12 | O=C(O)[C@@H]1CCC[C@H](n2ccc3cnc(-c4c[nH]c5ncc(F)cc45)nc32)C1 [Compound B48] | 1 to 10
13 | CC(=O)N1CCC(Cn2cc(F)c3cnc(-c4c[nH]c5ncc(F)cc45)nc32)CC1 [Compound B58] | 10 to 100
14 | COC(=O)N[C@H]1C2CCC(CC2)[C@@H]1n1cc(Cl)c2cnc(-c3c[nH]c4ncc(F)cc34)nc21 [Compound B149] | 1 to 10
15 | O=C(O)[C@H]1C2CCC(CC2)C1n1ccc2cnc(-c3c[nH]c4ncc(F)cc34)nc21 (some centres unmarked) [Compound B122] | 1 to 10
16 | CNC(=O)N1CCCCC1Cn1cc(F)c2cnc(-c3c[nH]c4ncc(F)cc34)nc21 (centres unmarked) [Compound B85] | 1 to 10
17 | O=C(O)[C@@H]1C2CCC(CC2)[C@H]1n1ccc2ccc(-c3c[nH]c4ncc(Cl)cc34)cc21 [Compound B206] | 1 to 10
18 | CNC(=O)[C@@H]1C2CCC(CC2)[C@H]1n1cc(F)c2cnc(-c3c[nH]c4ncc(Cl)cc34)nc21 [Compound B188] | 1 to 10
19 | COC(=O)CCn1ccc2c(-c3c[nH]c4ncc(F)cc34)ncnc21 [Compound A2] | 10 to 100
20 | CNC(=O)N1CCC(Cn2cc(F)c3cnc(-c4c[nH]c5ncc(F)cc45)nc32)CC1 [Compound B62] | > 100
21 | CC(=O)N[C@H]1C2CCC(CC2)[C@@H]1n1cc(Cl)c2cnc(-c3c[nH]c4ncc(F)cc34)nc21 [Compound B166] | 10 to 100
22 | O=C(O)c1cn([C@H]2C3CCC(CC3)[C@@H]2C(=O)O)c2nc(-c3c[nH]c4ncc(Cl)cc34)ncc12 [Compound B196] | 1 to 10
23 | COC(=O)CCn1ccc2cnc(-c3c[nH]c4ncc(F)cc34)nc21 [Compound B3] | > 100
24 | COC(=O)[C@]1(C)CCCC[C@H]1n1cc(Cl)c2cnc(-c3c[nH]c4ncc(F)cc34)nc21 [Compound B66] | 10 to 100

Row | Compound | IC50 [µM]
25 | O=C(O)C1=CCCCC1n1cc(F)c2cnc(-c3c[nH]c4ncc(Cl)cc34)nc21 (centres unmarked) [Compound B99] | < 1
26 | O=C(O)CNC(=O)Cn1ccc2c(-c3c[nH]c4ncc(F)cc34)ncnc21 [Compound A6] | 10 to 100
27 | CCOCCOCCOCCNC(=O)N1CCC[C@H](n2ccc3cnc(-c4c[nH]c5ncc(F)cc45)nc32)C1 [Compound B31] | 10 to 100
28 | CN(C)C(=O)N1CCC(Cn2cc(F)c3cnc(-c4c[nH]c5ncc(F)cc45)nc32)CC1 [Compound B63] | 10 to 100
29 | CCOCCOCCCCCNC(=O)N1CCC[C@H](n2ccc3cnc(-c4c[nH]c5ncc(F)cc45)nc32)C1 [Compound B37] | > 100
30 | CN(C)C(=O)Cn1ccc2c(-c3c[nH]c4ncc(F)cc34)ncnc21 [Compound A1] | 10 to 100
31 | O=C(O)C1=C(n2cc(F)c3cnc(-c4c[nH]c5ncc(Cl)cc45)nc32)C2CCC1CC2 [Compound B213] | < 1
32 | CC(C)(C)C(C(=O)O)n1ccc2cnc(-c3c[nH]c4ncc(F)cc34)nc21 (centres unmarked) [Compound B84] | 1 to 10
33 | CCOCCOCCCCCN(C)C(=O)N[C@@H]1CCC[C@H](n2ccc3cnc(-c4c[nH]c5ncc(F)cc45)nc32)C1 [Compound B45] | 10 to 100
34 | COC(=O)[C@@H]1C2CCC(CC2)[C@H]1n1ccc2ccc(-c3c[nH]c4ncc(Cl)cc34)cc21 [Compound B200] | 10 to 100
35 | C[C@@]1(C(=O)O)CCCC[C@H]1n1cc(F)c2cnc(-c3c[nH]c4ncc(F)cc34)nc21 [Compound B89] | < 1
36 | COC(=O)CCn1cc(-c2c[nH]c3ncc(F)cc23)c2cncnc21 [Compound C3] | > 100
37 | CCOCCCCCOCCN(C)C(=O)N[C@@H]1CCC[C@H](n2ccc3cnc(-c4c[nH]c5ncc(F)cc45)nc32)C1 [Compound B41] | 10 to 100
38 | O=C(O)[C@@H]1C2CCC(CC2)[C@H]1n1cc(-c2ccncc2F)c2cnc(-c3c[nH]c4ncc(Cl)cc34)nc21 (relative stereo) [Compound B211] | 1 to 10
39 | O=C(O)[C@@H]1C2CCC(CC2)C1n1cc(Cl)c2cnc(-c3c[nH]c4ncc(Cl)cc34)nc21 (single isomer, unassigned) [Compound B136] | 1 to 10
40 | CSCCCCc1cn([C@@H]2C3CCC(CC3)[C@H]2C(=O)O)c2nc(-c3c[nH]c4ncc(F)cc34)ncc12 [Compound B192] | < 1
41 | Fc1cnc2[nH]cc(-c3ncc4c(F)cn(CC5CCNCC5)c4n3)c2c1 [Compound B55] | > 100
42 | COC(=O)[C@@H]1CCC[C@H]1n1ccc2cnc(-c3c[nH]c4ncc(F)cc34)nc21 [Compound B19] | 1 to 10
43 | O=C(O)[C@@H]1CCCC[C@H]1n1ccc2cnc(-c3c[nH]c4ncc(F)cc34)nc21 (single isomer, unassigned) [Compound B17] | < 1
44 | CCOC(=O)[C@@H]1C2CCC(CC2)[C@H]1n1cc(CCc2ccccn2)c2cnc(-c3c[nH]c4ncc(F)cc34)nc21 [Compound B184] | 10 to 100
45 | CNC(=O)[C@H]1C2CCC(CC2)[C@@H]1n1cc(Cl)c2cnc(-c3c[nH]c4ncc(F)cc34)nc21 [Compound B141] | 1 to 10
46 | CCOC(=O)C(C)Cn1cc(-c2c[nH]c3ncc(F)cc23)c2cncnc21 (centres unmarked) [Compound C17] | > 100
47 | CN(C)C(=O)N[C@H]1CC[C@@H](n2ccc3cnc(-c4c[nH]c5ncc(F)cc45)nc32)CC1 [Compound B70] | 10 to 100
48 | CCOC(=O)[C@@H]1C2CCC(CC2)[C@H]1n1cc(CCCCC#N)c2cnc(-c3c[nH]c4ncc(F)cc34)nc21 [Compound B202] | > 100

Row | Compound | IC50 [µM]
49 | N[C@H]1CC[C@@H](n2ccc3cnc(-c4c[nH]c5ncc(F)cc45)nc32)CC1 [Compound B69] | 10 to 100
50 | O=C(O)[C@@H]1C2CCC(CC2)[C@H]1n1cc(-c2ccccn2)c2cnc(-c3c[nH]c4ncc(F)cc34)nc21 [Compound B169] | < 1
51 | O=C(O)[C@@H]1C2CCC(CC2)[C@H]1n1cc(-c2cn[nH]c2)c2cnc(-c3c[nH]c4ncc(F)cc34)nc21 [Compound B179] | < 1
52 | O=C(O)[C@@H]1C2CCC(CC2)[C@H]1n1cc(-c2ccsc2)c2cnc(-c3c[nH]c4ncc(F)cc34)nc21 [Compound B162] | < 1
53 | CNC(=O)n1cc(-c2ncc3c(F)cn(CC4CCCCN4)c3n2)c2cc(F)cnc21 (centres unmarked) [Compound B77] | 10 to 100
54 | CCOCCOCCOCCNC(=O)[C@@H]1CCCC[C@H]1n1ccc2cnc(-c3c[nH]c4ncc(F)cc34)nc21 [Compound B25] | 1 to 10
55 | N#Cc1cnccc1-c1cn([C@@H]2C3CCC(CC3)[C@H]2C(=O)O)c2nc(-c3c[nH]c4ncc(Cl)cc34)ncc12 [Compound B220] | 10 to 100
56 | O=C(O)[C@@H]1C2CCC(CC2)[C@H]1n1cc(C(F)(F)F)c2cnc(-c3c[nH]c4ncc(F)cc34)nc21 [Compound B151] | < 1
57 | CC(=O)N1CCCC(Cn2cc(F)c3cnc(-c4c[nH]c5ncc(F)cc45)nc32)C1 (centres unmarked) [Compound B54] | 1 to 10
58 | O=C(O)CCN1CCc2cnc(-c3c[nH]c4ncc(F)cc34)nc21 [Compound B13] | 10 to 100
59 | O=C(O)[C@H]1C2CCC(CC2)[C@@H]1n1cc(F)c2cnc(-c3c[nH]c4ncc(Cl)cc34)nc21 [Compound B135] | < 1
60 | CCCCCOCCCCCNC(=O)N[C@H]1CCC[C@@H](n2ccc3cnc(-c4c[nH]c5ncc(F)cc45)nc32)C1 [Compound B49] | > 100
61 | O=C(O)C1=C(N2CCc3cnc(-c4c[nH]c5ncc(F)cc45)nc32)CCCC1 [Compound B53] | 1 to 10
62 | O=C(O)[C@@H]1CCCC[C@H]1n1ccc2cnc(-c3c[nH]c4ncc(F)cc34)nc21 (racemic) [Compound B15] | 1 to 10
63 | C[C@H](NC(=O)Cn1ccc2c(-c3c[nH]c4ncc(F)cc34)ncnc21)C(=O)O [Compound A7] | 10 to 100
64 | CN(C)C(=O)Cn1cc(-c2c[nH]c3ncc(F)cc23)c2cncnc21 [Compound C1] | 10 to 100
65 | CN(C)C(=O)CCn1ccc2cnc(-c3c[nH]c4ncc(F)cc34)nc21 [Compound B2] | 10 to 100
66 | COC(=O)[C@H](C)NC(=O)Cn1ccc2cnc(-c3c[nH]c4ncc(F)cc34)nc21 [Compound B7] | > 100
67 | CCCCCOCCOCCNC(=O)N[C@H]1CCC[C@@H](n2ccc3cnc(-c4c[nH]c5ncc(F)cc45)nc32)C1 [Compound B36] | > 100
68 | O=C(O)[C@@H]1C2CCC(CC2)C1n1cc(-c2ccncc2)c2cnc(-c3c[nH]c4ncc(Cl)cc34)nc21 (some centres unmarked) [Compound B187] | 1 to 10
69 | CCOCCCCCOCCNC(=O)N1CCC[C@H](n2ccc3cnc(-c4c[nH]c5ncc(F)cc45)nc32)C1 [Compound B35] | 10 to 100
70 | O=C(O)CCn1ccc2c(-c3c[nH]c4ncc(F)cc34)ncnc21 [Compound A5] | 10 to 100
71 | O=C(O)[C@@H]1C2CCC(CC2)[C@H]1n1cc(-c2ccncc2Cl)c2cnc(-c3c[nH]c4ncc(Cl)cc34)nc21 (relative stereo) [Compound B212] | 1 to 10
